The results in this text go back to patent US20240115541A1, “METHOD FOR TREATING CEREBRAL APOPLEXY AND HYPERBILIRUBINEMIA BY COMPOUND FOR INHIBITING COMBINATION OF BILIRUBIN AND TRPM2 CHANNEL” (SHANGHAI SIXTH PEOPLE'S HOSPITAL, priority 2022, published 2024).

Each structure is given as a SMILES string.

For data set [1], the target named is T1, K928A/D1069A double mutant TRPM2 channel (Homo sapiens, UniProt O94759, D1069A/K928A).
T1 construct: expressed in transfected cells; host or cells: HEK293T cells, Lipofectamine 3000, GFP cDNA co-transfected as a separate marker
The data set can be described thus: Whole-cell patch-clamp recording, K928A/D1069A double mutant in HEK293T cells. It counts as cell-based. The note with it: intracellular ADPR 500 μM. As to the method: 3. Cell culture and transfection: Human embryonic kidney 293 (HEK293) cells with tetracycline-inducible expression of human TRPM2 channel (hTRPM2) were cultured in a mixed medium containing DMEM/F-12 and 10% fetal bovine serum as well as blasticidin (50 μg/ml) and zeocin (0.4 mg/ml). The expression of hTRPM2 was induced by substituting […] (1 μg/ml) 24-48 hours before use. TRPM2 channel mutants were transiently expressed in HEK293T cells by transfection with using Lipofectamine 3000. Briefly, HEK293T cells were transiently transfected with cDNAs encoding the mutant hTRPM2 channel. The cDNA for GFP was co-transfected as a marker for identification of the transfected cells for electrophysiological experiments 16-24 hours after transfection. […]
4. Whole-cell and ingle-channel patch-clamp recording: the coverslips were placed in a culture dish (35×35 mm, Sorfa) containing HEPES based extracellular solution (ECS) and recorded by patch-clamp technique. […] Each coverslip was recorded only once with different drug exposures. […] The excised patches were voltage-clamped from −80 mV to +80 mV (in 20 mV increasement) to generate the current-voltage (I-V) relationship of single channel currents from which their main conductance was calculated from the slope by linear regression of the mean current amplitude at different potentials. […]

Data set [2] addresses T2, human TRPM2 channel (hTRPM2) (Homo sapiens, UniProt O94759).
T2 construct: expressed in transfected cells; host or cells: HEK293 cells with tetracycline-inducible expression
The data set can be described thus: Single-channel (outside-out) patch-clamp recording, HEK-hTRPM2 cells. It counts as cell-based. The note with it: FFA applied after bilirubin. As to the method: 1. Extracellular solution (in mM): 145 NaCl, 5.6 KCl, 2 MgCl2, 1.2 CaCl2, 10 HEPES, 10 glucose and pH adjusted to 7.4 by NaOH (290-320 mOsm).
2. Pipette solution contains (in mM): 147 NaCl, 1 MgCl2, 1 EGTA and 10 HEPES with pH 7.4 and osmolality 290-320 mOsm.
3. Cell culture and transfection: Human embryonic kidney 293 (HEK293) cells with tetracycline-inducible expression of human TRPM2 channel (hTRPM2) were cultured in a mixed medium containing DMEM/F-12 and 10% fetal bovine serum as well as blasticidin (50 μg/ml) and zeocin (0.4 mg/ml). The expression of hTRPM2 was induced by substituting […] (1 μg/ml) 24-48 hours before use. TRPM2 channel mutants were transiently expressed in HEK293T cells by transfection with using Lipofectamine 3000. […]
4. Whole-cell and ingle-channel patch-clamp recording: the coverslips were placed in a culture dish (35×35 mm, Sorfa) containing HEPES based extracellular solution (ECS) and recorded by patch-clamp technique. […] Each coverslip was recorded only once with different drug exposures. […] The excised patches were voltage-clamped from −80 mV to +80 mV (in 20 mV increasement) to generate the current-voltage (I-V) relationship of single channel currents from which their main conductance was calculated from the slope by linear regression of the mean current amplitude at different potentials.
A general note: Patch clamp records ionic current or voltage across a cell membrane.

In data set [3] the test system is cortical neurons in adult Trpm2+/+ brain slices. The note with it: mouse, 1 h.
Protocol: In this assay, surviving and dead cortical neurons were labeled with calcein-am and propidium-iodide (PI), respectively (FIG. 4K), the specific process was as follows:
Trpm2^+/+ mice aged 4-8 weeks were anesthetized by intraperitoneal injection of 1% pentobarbital (55 mg/kg). The brain tissue of the mice was then acutely isolated, and brain slices with a thickness of 150 μm were obtained using a vibratome.
The brain slices were incubated with bilirubin (Bil) and bilirubin+A23 (Bil+A23) for 1 hour at 37° C., adding calcein-am (1 μM) and PI (2 μM) for the last 15 minutes, and then washed for three times before being fixed.
When the staining was completed, the cells were fixed with 4% paraformaldehyde in a dark container for 40 minutes, and finally confocal imaging was performed. Cell counts were performed using the software of Image-J to calculate the death rate.

T1 sequence (O94759 whole entry K928A/D1069A): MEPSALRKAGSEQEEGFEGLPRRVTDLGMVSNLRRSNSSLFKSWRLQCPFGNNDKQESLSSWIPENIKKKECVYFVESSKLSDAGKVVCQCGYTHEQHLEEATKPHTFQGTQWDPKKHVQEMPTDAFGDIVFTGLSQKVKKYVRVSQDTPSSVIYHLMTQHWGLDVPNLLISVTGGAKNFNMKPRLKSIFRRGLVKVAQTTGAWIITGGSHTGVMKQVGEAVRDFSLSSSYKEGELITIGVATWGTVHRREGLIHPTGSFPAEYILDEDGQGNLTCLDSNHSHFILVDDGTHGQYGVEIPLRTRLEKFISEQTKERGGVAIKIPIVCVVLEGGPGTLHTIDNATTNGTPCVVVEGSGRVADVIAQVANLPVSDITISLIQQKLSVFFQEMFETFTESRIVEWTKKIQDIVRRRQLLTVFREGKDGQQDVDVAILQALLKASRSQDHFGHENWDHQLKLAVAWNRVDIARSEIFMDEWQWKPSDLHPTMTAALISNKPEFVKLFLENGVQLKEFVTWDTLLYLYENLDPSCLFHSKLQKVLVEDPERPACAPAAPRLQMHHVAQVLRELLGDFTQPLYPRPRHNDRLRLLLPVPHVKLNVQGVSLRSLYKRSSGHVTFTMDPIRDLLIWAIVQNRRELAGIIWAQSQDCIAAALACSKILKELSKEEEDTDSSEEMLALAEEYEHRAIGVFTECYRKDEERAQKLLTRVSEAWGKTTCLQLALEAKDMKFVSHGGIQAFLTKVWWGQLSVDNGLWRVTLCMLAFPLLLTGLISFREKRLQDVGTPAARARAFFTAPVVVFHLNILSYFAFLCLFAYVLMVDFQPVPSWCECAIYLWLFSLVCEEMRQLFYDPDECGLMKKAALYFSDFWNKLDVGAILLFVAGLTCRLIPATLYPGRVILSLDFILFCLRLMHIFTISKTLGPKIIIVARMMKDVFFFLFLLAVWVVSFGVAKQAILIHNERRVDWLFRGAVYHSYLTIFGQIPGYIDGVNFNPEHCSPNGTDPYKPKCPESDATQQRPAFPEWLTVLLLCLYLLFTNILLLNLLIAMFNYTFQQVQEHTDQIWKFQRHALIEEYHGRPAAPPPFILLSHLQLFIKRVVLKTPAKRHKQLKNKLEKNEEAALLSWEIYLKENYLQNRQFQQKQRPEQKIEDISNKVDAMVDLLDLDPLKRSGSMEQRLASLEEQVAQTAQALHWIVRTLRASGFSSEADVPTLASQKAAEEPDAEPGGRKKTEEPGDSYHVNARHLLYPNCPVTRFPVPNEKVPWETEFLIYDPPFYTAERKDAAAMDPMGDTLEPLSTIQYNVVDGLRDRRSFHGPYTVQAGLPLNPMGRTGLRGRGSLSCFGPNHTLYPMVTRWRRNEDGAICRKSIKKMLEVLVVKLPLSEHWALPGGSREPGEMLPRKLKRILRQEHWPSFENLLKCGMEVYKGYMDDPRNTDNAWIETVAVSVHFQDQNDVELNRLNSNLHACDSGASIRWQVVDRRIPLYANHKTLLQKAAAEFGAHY
T2 sequence (O94759 whole entry): as the sequence (O94759 whole entry K928A/D1069A) above, with A928K, A1069D counted along it

Take `Nc1ncnc2c1ncn2[C@@H]1O[C@H](COP(=O)(O)OP(=O)(O)OC[C@H]2OC(O)[C@H](O)[C@@H]2O)[C@@H](O)[C@H]1O` (stereo partly drawn) [ADPR, ADP-ribose]: the “activation of K928A/D1069A double mutant currents” value in data set [1] is “perfectly retained the agonist capacity”.

On to `O=C(O)c1ccccc1Nc1cccc(C(F)(F)F)c1` [FFA, flufenamic acid], for which the “effect on bilirubin-increased opening probability (Po)” value in data set [2] is “reversed”.

For `C=CC1=C(C)/C(=C/c2[nH]c(Cc3[nH]c(/C=C4\NC(=O)C(C)=C4C=C)c(C)c3CCC(=O)O)c(CCC(=O)O)c2C)NC1=O` [bilirubin], the “mortality of cortical neurons” value in data set [3] is given as 60.84±2.13%.
